Results from US5734081A, “Arylthio compounds” (Warner-Lambert Company, priority 1995, dated 1998).

Legend:
[1] = CEM cell growth inhibition (XTT, noninfected cells); type: cell-based; conditions: human, CEM Cell Assay, drug alone, read-out: IC50 (Inhibitory Concentration where drug alone inhibits cell growth)
Description: (§1) Yet another test system employed to determine antiviral activity is called the CEM cell assay.
(§2) T4 lymphocytes (CEM cell line) are exposed to HIV at a virus to cell ratio approximately 0.05, and plated along with noninfected control cells in 96-well microliter plates.
(§3) The candidate agent is dissolved in dimethyl sulfoxide (unless otherwise noted), then diluted 1:200 in cell culture medium. Further dilutions (half-log10) are prepared before adding to an equal volume of medium containing either infected or noninfected cells. Cultures are incubated at 37° in a 5% carbon dioxide atmosphere for 6 or 7 days. The tetrazolium salt, XTT, is added to all wells, and cultures are incubated to allow formazan color development by viable cells (J. National Cancer Institute, 1989;81:577-586). Individual wells are analyzed spectrophotometrically to quantitate formazan production, and in addition are viewed microscopically for detection of viable cells confirmation of protective activity.
(§4) Drug-tested virus-infected cells are compared with drug-treated noninfected cells and with other appropriate controls (untreated infected and untreated noninfected cells, drug-contain wells without cells, etc.) on the same plate. Data are reviewed in comparison with other tests done at the same time and a determination about activity is made.

HIV-1 = experiment: CEM cell assay, anti-HIV-1 activity; type: cell-based; conditions: Human immunodeficiency virus 1, CCRF-CEM, HIV-1, 6 or 7 days, read-out: EC50 (Effective Concentration which protects cells from viral cytopathic effects)
Text: The test systems utilized to establish the antiviral activity of the arylthio compounds of this invention are well recognized in the art and are routinely employed for such purpose. For example, the assay utilized to evaluate the compounds activity against the HIV virus is that employed by the U.S. National Cancer Institute as described by Weislow O. S., et al., J. Natl. Cancer Inst., 1989;81:577-586, incorporated herein by reference.
The procedure is designed to detect agents acting at any stage of the virus reproductive cycle. The assay basically involves the killing of T4 lymphocytes by HIV. Small amounts of HIV are added to cells, and at least two complete cycles of virus reproduction are necessary to obtain the required cell killing. Agents which interact with virions, cells, or virus gene-products to interfere with viral activities will protect cells from cytolysis. The system is automated in several features to accommodate large numbers of candidate agents, and is generally designed to detect anti-HIV activity. However, compounds which degenerate or are rapidly metabolized in the culture conditions may not show activity in this screen.
as §1, §2, §3, §4

[2] = target: T1, HIV-1 Nucleocapsid Protein (NCp7) (Human immunodeficiency virus type 1 group M subtype B, UniProt P12493); experiment: Zinc extrusion assay (TSQ fluorescence) from the zinc fingers of HIV-1 nucleocapsid protein (NCp7); type: biochemical
T1 construct: The NCp7 protein containing 2 Zn-fingers and 2 Zn ions is incubated with drug
Text: The compounds of the present invention cause the extrusion of zinc from the nucleocapsid protein (NCp7) of HIV-1. The NC protein is highly conserved among all retroviruses (South T., Blake P., et al., Biochemistry, 1990;29:7786) and is essential for viral infectivity (Aldovini A. and Young R., J. Virology, 1990;64:1920 and Gorelick R., Nigida S., et al., J. Virology, 1990;64:3207). The zinc is normally held in NC proteins by 1 or 2 zinc fingers. In the case of HIV-1, 2 zinc fingers are present (Summers M., South T., et al., Biochemistry, 1990;29:329) and are involved specifically with the PSI site on viral RNA which controls the packaging of viral RNA. Interference of this packaging causes the formation of non-infectious virions (Dannull J., Surovoy A., et al., EMBO, 1994;13:1525). It has previously been shown that compounds that cause zinc extrusion have potent anti-HIV activity in multiple cell lines and against all retroviruses (Rice W., Schaeffer C., et al., Nature, 1993;361:473).
A fluorescence-based assay has been developed to monitor the ejection of zinc from purified HIV-1 NCp7. The fluorophore, N-(6-methoxy-8-quinolyl)-p-toluenesulfonamide (TSQ), has an increased fluorescent signal upon bonding zinc ion in solution. The NCp7 protein containing 2 Zn-fingers and 2 Zn ions is incubated with drug causing the extrusion of Zn ions. The released Zn is then sequestered by the TSQ and the increased fluorescence monitored relative to control. […] Fluorescence (excitation 355 nm emission 400 nm) was monitored versus time. Controls were the NCp7 under assay conditions without drug, and apo NCp7 (no Zn) with drug. The % Zn extrusion was calculated based on the actual fluorescence measured divided by the fluorescence of all theoretical Zn extruded (5.6 μM)×100.
Table 1 below presents data for several invention compounds evaluated in the zinc extrusion assay described above.

[3] = 10 μM compound, 2.8 μM NCp7, pH 7.4, 26° C., 90 minutes

| Compound | CC50 [1] [µM] | EC50 (HIV-1) [µM] | % Zinc Extrusion Relative to Control [2, 3] [%] | % Zinc Extrusion Relative to Control ([2]; EDTA, 24 hours) [%] |
| --- | --- | --- | --- | --- |
| O=C(O)Cc1ccc(NC(=O)c2ccccc2SSc2ccccc2C(=O)Nc2ccc(CC(=O)O)cc2)cc1 [Example 108, (4-{2-[2-(4-Carboxymethyl-phenylcarbamoyl)-phenyldisulfanyl]-benzoylamino}-phenyl)-acetic acid] | 61 | 5.9 |  |  |
| NS(=O)(=O)c1ccc(NC(=O)c2cccnc2SSc2ncccc2C(=O)Nc2ccc(S(N)(=O)=O)cc2)cc1 [Example 25, 2,2'-Dithiobis[N-[4-(aminosulfonyl)phenyl]-3-pyridinecarboxamide]] |  |  | 73 |  |
| O=C(c1ccccc1SSc1ccccc1C(=O)N1CCSCC1)N1CCSCC1 [Example 113, {2-[2-(Thiomorpholine-4-carbonyl)-phenyldisulfanyl]phenyl}-thiomorpholin-4-yl-methanone] |  |  | 67 |  |
| CC(C)(C)C(=O)Nc1ccc(SSc2ccc(NC(=O)C(C)(C)C)cc2C(N)=O)c(C(N)=O)c1 [Example 73, 2,2'-Dithiobis[5-[(2,2-dimethyl-1-oxopropyl)amino]benzamide]] | 70 | 5 |  |  |
| CC(C)C[C@H](NC(=O)c1ccc(F)cc1SSc1cc(F)ccc1C(=O)N[C@@H](CC(C)C)C(=O)O)C(=O)O [Example 51, [S-(R*,R*)]2-{2-[2-(1-Carboxy-3-methyl-butylcarbamoyl)-5-fluoro-phenyldisulfanyl]-4-fluorobenzoylamino}-4-methyl-pentanoic acid] | 64 | 8.4 |  |  |
| CS(=O)(=O)c1ccc(NC(=O)c2ccccc2SSc2ccccc2C(=O)Nc2ccc(S(C)(=O)=O)cc2)cc1 [Example 94, 2,2'-Dithiobis[N-[4-(methylsulfonyl)phenyl]benzamide]] |  |  | 62 |  |
| CC(C)(C)[C@H](NC(=O)c1ccccc1SSc1ccccc1C(=O)N[C@H](C(=O)O)C(C)(C)C)C(=O)O [Example 48, L,L-2-{2-[2-(1-Carboxy-2,2-dimethyl-propylcarbamoyl)-phenyldisulfanyl]-benzoylamino}-3,3-dimethyl-butyric acid] | > 100 | 18 |  |  |
| NS(=O)(=O)c1ccccc1NC(=O)c1ccccc1SSc1ccccc1C(=O)Nc1ccccc1S(N)(=O)=O [Example 102, 2,2'-Dithiobis[N-[2-(aminosulfonyl)phenyl]benzamide]] | 68 | 1.7 |  |  |
| CC(C)(SSc1ccccc1C(=O)Nc1ccc(S(N)(=O)=O)cc1)C(N)C(=O)O (stereo not shown) [Example 138, 2-Amino-3-methyl-3-[2-(4-sulfamoylphenylcarbamoyl)phenyldisulfanyl]-butyric acid] | 66 | 6.3 |  |  |
| COc1ccc(SSc2ccc(OC)cc2C(N)=O)c(C(N)=O)c1 [Example 70, 2,2'-Dithiobis[5-methoxy-benzamide]] |  |  | 74 |  |
| CC(=O)Nc1ccc(SSc2ccc(NC(C)=O)cc2C(=O)N[C@@H](CC(C)C)C(=O)O)c(C(=O)N[C@@H](CC(C)C)C(=O)O)c1 [Example 60, [S-(R*,R*)]2-{5-Acetylamino-2-[4-acetylamino-2-(1-carboxy-3-methyl-butylcarbamoyl)-phenyldisulfanyl]-benzoylamino}-4-methyl-pentanoic acid] |  |  | 65 |  |
| NS(=O)(=O)c1ccc(NS(=O)(=O)c2ccccc2SSc2ccccc2S(=O)(=O)Nc2ccc(S(N)(=O)=O)cc2)cc1 [Example 145] |  |  | 65 |  |
| NS(=O)(=O)c1ccc(NC(=O)c2ccc(F)cc2SSc2cc(F)ccc2C(=O)Nc2ccc(S(N)(=O)=O)cc2)cc1 [Example 16, 2,2'-Dithiobis[N-[4-(aminosulfonyl)phenyl]-4-fluorobenzamide]] | 66 | 2.5 |  |  |
| O=C(O)c1ccc(NC(=O)c2ccccc2SSc2ccccc2C(=O)Nc2ccc(C(=O)O)cc2)cc1 [Example 106, 4,4'-[dithiobis(2,1-phenylenecarbonylimino)bisbenzoic acid]] | 22 | 1.8 |  |  |
| Cc1cccc(C(=O)N[C@@H](CC(C)C)C(=O)O)c1SSc1c(C)cccc1C(=O)N[C@@H](CC(C)C)C(=O)O [Example 56, [S-(R*,R*)]2-{2-[2-(1-Carboxy-3-methyl-butylcarbamoyl)-6-methyl-phenyldisulfanyl]-3-methyl-benzoylamino}-4-methyl-pentanoic acid] |  |  | 73 |  |
| COc1ccc(C(=O)N[C@@H](CC(C)C)C(=O)O)c(SSc2cc(OC)ccc2C(=O)N[C@@H](CC(C)C)C(=O)O)c1 [Example 54, [S-(R*,R*)]2-{2-[2-(1-Carboxy-3-methyl-butyl]carbamoyl)-5-methoxy-phenyldisulfanyl]-4-methoxybenzoylamino}-4-methyl-pentanoic acid] | 75 | 6.9 |  |  |
| Cc1ccc(SSc2ccc(C)cc2C(=O)Nc2ccc(S(N)(=O)=O)cc2)c(C(=O)Nc2ccc(S(N)(=O)=O)cc2)c1 [Example 23, 2,2'-Dithiobis[N-[4-(aminosulfonyl)phenyl]-5-methylbenzamide]] | > 100 | 4.3 |  |  |
| Cc1ccc(C(=O)N[C@@H](CC(C)C)C(=O)O)c(SSc2cc(C)ccc2C(=O)N[C@@H](CC(C)C)C(=O)O)c1 [Example 57, [S-(R*,R*)]2-{2-[2-(1-Carboxy-3-methyl-butylcarbamoyl)-5-methyl-phenyldisulfanyl]-4-methylbenzoylamino}-4-methyl-pentanoic acid] | 71 | 6 |  |  |
| COC(=O)c1ccccc1SSc1ccccc1C(=O)Nc1ccc(S(N)(=O)=O)cc1 [Example 137, 2-[2-(4-Sulfamoylphenylcarbamoyl)phenyldisulfanyl]benzoic acid, methyl ester] | 65 | 8.6 |  |  |
| O=C(c1ccccc1)c1ccccc1SSc1ccccc1C(=NO)c1ccccc1 [Example 150, {2-[2-(hydroxyimino-phenyl-methyl)-phenyldisulfanyl]phenyl}-phenyl-methanon] |  |  | 36 |  |
| O=C(O)CN(CCN(CC(=O)O)CC(=O)O)CC(=O)O [EDTA, reference compound] |  |  |  | 10 |
| COc1cccc(C(=O)Nc2ccc(S(N)(=O)=O)cc2)c1SSc1c(OC)cccc1C(=O)Nc1ccc(S(N)(=O)=O)cc1 [Example 18, 2,2'-Dithiobis[N-[4-(aminosulfonyl)phenyl]-3-methoxybenzamide]] |  |  | 67 |  |
| CC(C)NS(=O)(=O)c1ccc(NC(=O)c2ccccc2SSc2ccccc2C(=O)Nc2ccc(S(=O)(=O)NC(C)C)cc2)cc1 [Example 3, 2,2'-Dithiobis-N-[4[[(1-methylethyl)amino]sulfonyl]phenyl]benzamide] |  |  | 73 |  |
| O=C(O)C[C@H](NC(=O)c1ccccc1SSc1ccccc1C(=O)N[C@@H](CC(=O)O)C(=O)O)C(=O)O [Example 62, L,L-2-{2-[2-(1,2-Dicarboxy-ethylcarbamoyl)-phenyldisulfanyl]-benzoylamino}-succinic acid] |  |  | 73 |  |
| O=C(Nc1ccc(Cl)cc1Cl)c1ccccc1SSc1ccccc1C(=O)Nc1ccc(Cl)cc1Cl [Example 84, 2,2'-Dithiobis[N-(2,4-dichlorophenyl)benzamide]] |  |  | 50 |  |
